Patent US20250074891A1 (Anaxis Pharma Pty Ltd., priority 2021, published 2025)

Experiments:
Conditions in all cases: Table 35
MLKL (full length) = MLKL (full length) (Homo sapiens (Human), UniProt Q8NB16); assay: KINOMEscan binding assay, MLKL (full length)
Method: (§1) Kinase assays. For most assays, kinase-tagged T7 phage strains were grown in parallel in 24-well blocks in an E. coli host derived from the BL21 strain. E. coli were grown to log-phase and infected with T7 phage from a frozen stock (multiplicity of infection=0.4) and incubated with shaking at 32° C. until lysis (90-150 minutes).
(§2) The Hill Slope was set to −1.

RIP1 = RIP1 (Homo sapiens (Human), UniProt Q13546); assay: KINOMEscan binding assay, RIP1
RIP3 = RIP3 (Homo sapiens (Human), UniProt Q9Y572); assay: KINOMEscan binding assay, RIP3
Method: as §1, §2

Sequence of MLKL (full length) (Q8NB16 whole entry): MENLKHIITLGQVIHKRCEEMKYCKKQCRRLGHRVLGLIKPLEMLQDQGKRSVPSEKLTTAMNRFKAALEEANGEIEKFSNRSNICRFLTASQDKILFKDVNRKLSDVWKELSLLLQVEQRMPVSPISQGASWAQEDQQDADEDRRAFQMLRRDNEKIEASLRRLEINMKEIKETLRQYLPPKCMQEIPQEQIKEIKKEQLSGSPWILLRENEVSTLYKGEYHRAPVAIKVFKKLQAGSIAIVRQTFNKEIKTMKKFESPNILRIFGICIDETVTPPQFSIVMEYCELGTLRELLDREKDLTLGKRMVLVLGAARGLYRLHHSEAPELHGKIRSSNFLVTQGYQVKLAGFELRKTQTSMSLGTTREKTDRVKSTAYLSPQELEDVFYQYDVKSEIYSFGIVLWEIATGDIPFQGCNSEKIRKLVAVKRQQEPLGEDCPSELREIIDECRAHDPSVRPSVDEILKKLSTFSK
Sequence of RIP3 (Q9Y572 whole entry): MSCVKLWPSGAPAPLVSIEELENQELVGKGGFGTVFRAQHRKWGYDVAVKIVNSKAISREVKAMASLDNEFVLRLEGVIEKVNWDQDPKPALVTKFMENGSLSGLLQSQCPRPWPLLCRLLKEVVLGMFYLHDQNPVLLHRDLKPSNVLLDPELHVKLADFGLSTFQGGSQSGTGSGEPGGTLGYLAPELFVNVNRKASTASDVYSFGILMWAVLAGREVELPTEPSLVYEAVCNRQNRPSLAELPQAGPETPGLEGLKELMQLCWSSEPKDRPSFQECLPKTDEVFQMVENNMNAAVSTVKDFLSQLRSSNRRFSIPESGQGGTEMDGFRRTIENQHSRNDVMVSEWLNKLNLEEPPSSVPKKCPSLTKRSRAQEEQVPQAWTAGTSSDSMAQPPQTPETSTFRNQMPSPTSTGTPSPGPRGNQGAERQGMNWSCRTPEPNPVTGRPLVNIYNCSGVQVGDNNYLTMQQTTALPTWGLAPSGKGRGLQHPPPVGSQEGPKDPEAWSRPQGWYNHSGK
Sequence of RIP1 (Q13546 whole entry): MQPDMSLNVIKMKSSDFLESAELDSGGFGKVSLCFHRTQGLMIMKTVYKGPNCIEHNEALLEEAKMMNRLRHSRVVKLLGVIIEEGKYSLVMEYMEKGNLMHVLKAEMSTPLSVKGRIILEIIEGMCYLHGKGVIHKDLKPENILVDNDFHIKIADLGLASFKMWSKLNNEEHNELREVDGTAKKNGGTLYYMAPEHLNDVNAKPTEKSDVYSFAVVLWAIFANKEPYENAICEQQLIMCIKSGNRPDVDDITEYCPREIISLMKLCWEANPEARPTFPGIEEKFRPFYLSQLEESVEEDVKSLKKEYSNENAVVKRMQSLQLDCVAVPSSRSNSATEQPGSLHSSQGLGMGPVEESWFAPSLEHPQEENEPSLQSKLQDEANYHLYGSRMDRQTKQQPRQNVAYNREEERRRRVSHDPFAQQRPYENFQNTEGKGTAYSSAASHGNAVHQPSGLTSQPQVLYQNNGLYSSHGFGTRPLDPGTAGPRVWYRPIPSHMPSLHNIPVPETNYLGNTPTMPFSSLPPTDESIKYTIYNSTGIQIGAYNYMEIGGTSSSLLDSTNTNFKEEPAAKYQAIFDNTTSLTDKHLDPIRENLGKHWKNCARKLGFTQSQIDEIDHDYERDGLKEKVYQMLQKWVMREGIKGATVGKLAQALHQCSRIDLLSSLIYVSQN

SMILES | Kd (MLKL (full length)) [nM] | Kd (RIP1) [µM] | Kd (RIP3) [µM]
CCS(=O)(=O)Nc1ccc(-c2n[nH]c(Nc3cnccn3)c2C(N)=O)cc1OCc1cccnc1 [Compound 32, 3-(4-(ethylsulfonamido)-3-(226yridine-3-ylmethoxy)phenyl)-5-(pyrazin-2-ylamino)-1H-pyrazole-4-carboxamide] | < 10 | > 30 | > 30
NC(=O)c1c(-c2ccc(NS(=O)(=O)CC(F)(F)F)c(OCc3ccc(F)cc3)c2)n[nH]c1Nc1ccc(C(F)(F)F)nc1 [Compound 176, 3-(3-((4-fluorobenzyl)oxy)-4-((2,2,2-trifluoroethyl)sulfonamido)phenyl)-5-((6-(trifluoromethyl)pyridine-3-yl)amino)-1H-pyrazole-4-carboxamide] | < 10 | > 30 | > 30
C[C@H](Oc1cc(-c2n[nH]c(Nc3cnn(C4CCOCC4)c3)c2C(N)=O)ccc1NS(=O)(=O)C(F)F)c1ccc(F)cc1 [Compound 306, (S)-3-(4-((difluoromethyl)sulfonamido)-3-(1-(4-fluorophenyl)ethoxy)phenyl)-5-((1-(tetrahydro-2H-pyran-4-yl)-1H-pyrazol-4-yl)amino)-1H-pyrazole-4-carboxamide] | < 10 | > 30 | > 30
C[C@H](Oc1cc(-c2n[nH]c(Nc3cnccn3)c2C(N)=O)ccc1NS(=O)(=O)CC(F)(F)F)c1cccc(Cl)c1 [Compound 256, 3-{3-[(1S)-1-(3-chlorophenyl)ethoxy]-4-(2,2,2-trifluoroethane-sulfonamido)phenyl}-5-[(pyrazin-2-yl)amino]-1H-pyrazole-4-carboxamide] | < 10 | > 30 | > 30
CCS(=O)(=O)Nc1ccc(-c2n[nH]c(Nc3cnccn3)c2C(N)=O)cc1O[C@H](C)c1ccc(F)cc1 [Compound 193, (R)-3-(4-(ethylsulfonamido)-3-(1-(4-fluorophenyl)ethoxy)phenyl)-5-(pyrazin-2-ylamino)-1H-pyrazole-4-carboxamide] | < 10 | > 30 | > 30
CCS(=O)(=O)Nc1ccc(-c2n[nH]c(Nc3ccnc(C(F)(F)F)c3)c2C(N)=O)cc1 [Compound 104, 3-(4-(ethylsulfonamido)phenyl)-5-((2-(trifluoromethyl)pyridin-4-yl)amino)-1H-pyrazole-4-carboxamide] | < 10 | > 30 | > 30
CCS(=O)(=O)Nc1ccc(-c2n[nH]c(Nc3cnccn3)c2C(N)=O)cc1OCc1ccccc1 [Compound 25, 3-(3-(benzyloxy)-4-(ethylsulfonamido)phenyl)-5-(pyrazin-2-ylamino)-1H-pyrazole-4-carboxamide] | < 10 | > 30 | > 30
CC(Oc1cc(-c2n[nH]c(Nc3cnccn3)c2C(N)=O)ccc1NS(=O)(=O)C(F)F)c1ncco1 (racemic) [Compound 293, 3-(4-((difluoro-methyl)sulfon-amido)-3-(1-(oxazol-2-yl)ethoxy)phenyl)-5-(pyrazin-2-ylamino)-1H-pyrazole-4-carboxamide] | < 10 | > 30 | > 30
CCS(=O)(=O)Nc1ccc(-c2n[nH]c(Nc3ccccn3)c2C(N)=O)cc1OCc1cccnc1 [Compound 31, 3-(4-(ethylsulfon-amido)-3-(pyridin-3-ylmethoxy)phenyl)-5-(pyridin-2-ylamino)-1H-pyrazole-4-carboxamide] | < 10 | > 30 | > 30
C[C@H](Oc1cc(-c2n[nH]c(Nc3cnccn3)c2C(N)=O)ccc1NS(=O)(=O)CC(F)(F)F)c1ccc(F)cc1 [Compound 164, (S)-3-(3-(1-(4-fluorophenyl)ethoxy)-4-((2,2,2-trifluoroethyl)sulfonamido)phenyl)-5-(pyrazin-2-ylamino)-1H-pyrazole-4-carboxamide] | < 10 | > 30 | > 30
NC(=O)c1c(-c2ccc(NS(=O)(=O)CC(F)(F)F)cc2OCc2ccc(F)cc2)n[nH]c1Nc1cccc(C(F)(F)F)n1 [Compound 140, 3-(2-((4-fluorobenzyl)oxy)-4-((2,2,2-trifluoroethyl)sulfonamido)phenyl)-5-((6-(trifluoromethyl)pyridine-2-yl)amino)-1H-pyrazole-4-carboxamide] | < 10 | > 30 | > 30
NC(=O)c1c(-c2ccc(NS(=O)(=O)C(F)F)c(OCc3ccc(F)c(F)c3)c2)n[nH]c1Nc1cccc(C(F)(F)F)n1 [Compound 151, 3-(3-((3,4-difluorobenzyl)oxy)-4-((difluoromethyl)sulfonamido)phenyl)-5-((6-(trifluoromethyl)pyridine-2-yl)amino)-1H-pyrazole-4-carboxamide] | < 10 | > 30 | > 30

The next lines start with the values.

Kd (MLKL (full length)) [nM] | Kd (RIP1) [µM] | Kd (RIP3) [µM] | SMILES
< 10 | > 30 | > 30 | CCS(=O)(=O)Nc1ccc(-c2n[nH]c(Nc3ccccn3)c2C(N)=O)cc1OCc1ccncc1 [Compound 27, 3-(4-(ethylsulfon-amido)-3-(pyridin-4-ylmethoxy)phenyl)-5-(pyridin-2-ylamino)-1H-pyrazole-4-carboxamide]
< 10 | > 30 | > 30 | CCS(=O)(=O)Nc1ccc(-c2n[nH]c(Nc3cnccn3)c2C(N)=O)cc1Oc1cccc(F)c1 [Compound 204, 3-(4-(ethylsulfonamido)-3-(3-fluorophenoxy)phenyl)-5-(pyrazin-2-ylamino)-1H-pyrazole-4-carboxamide]
< 10 | > 30 | > 30 | C[C@H](Oc1cc(-c2n[nH]c(Nc3cnccn3)c2C(N)=O)ccc1NS(=O)(=O)C(F)F)c1ccc(F)cc1 [Compound 223, 3-[4-(difluoromethanesulfonamido)-3-[(1S)-1-(4-fluorophenyl)ethoxy]phenyl]-5-[(pyrazin-2-yl)amino]-1H-pyrazole-4-carboxamide]
< 10 | > 30 | > 30 | C[C@H](Oc1cc(-c2n[nH]c(Nc3cccc(C(F)(F)F)n3)c2C(N)=O)ccc1NS(=O)(=O)C(F)F)c1ccc(F)cc1 [Compound 229, 3-[4-(difluoromethanesulfonamido)-3-[(1S)-1-(4-fluorophenyl)ethoxy]phenyl]-5-{[6-(trifluoromethyl)pyridin-2-yl]amino}-1H-pyrazole-4-carboxamide]
< 10 | > 30 | > 30 | CCS(=O)(=O)Nc1ccc(-c2n[nH]c(Nc3cc(C)on3)c2C(N)=O)cc1O[C@@H](C)c1ccc(F)cc1 [Compound 317, (S)-3-(4-(ethylsulfonamido)-3-(1-(4-fluorophenyl)ethoxy)phenyl)-5-((5-methylisoxazol-3-yl)amino)-1H-pyrazole-4-carboxamide]
< 10 | > 30 | > 30 | C[C@H](Oc1cc(-c2n[nH]c(Nc3cc(C4(C(F)(F)F)CC4)on3)c2C(N)=O)ccc1NS(=O)(=O)C(F)F)c1ccc(F)cc1 [Compound 289, (S)-3-(4-((difluoromethyl)sulfonamido)-3-(1-(4-fluorophenyl)ethoxy)phenyl)-5-((5-(1-(trifluoromethyl)cyclopropyl)isoxazol-3-yl)amino)-1H-pyrazole-4-carboxamide]
< 10 | > 30 | > 30 | CCS(=O)(=O)Nc1ccc(-c2n[nH]c(Nc3cnccn3)c2C(N)=O)cc1OCc1ccc(F)cc1 [Compound 62, 3-(4-(ethylsulfonamido)-3-((4-fluorobenzyl)oxy)phenyl) 5-(pyrazin-2-ylamino)-1H pyrazole-4-carboxamide]
< 10 | > 30 | > 30 | CCS(=O)(=O)Nc1ccc(-c2n[nH]c(Nc3ccccn3)c2C(N)=O)c(OCc2ccc(F)cc2)c1 [Compound 201]
< 10 | > 30 | > 30 | COCC(Oc1cc(-c2n[nH]c(Nc3cnccn3)c2C(N)=O)ccc1NS(=O)(=O)C(F)F)c1ccc(F)cc1 (stereo not drawn) [Compound 319, 3-(4-((difluoromethyl)sulfonamido)-3-(1-(4-fluorophenyl)-2-methoxyethoxy)phenyl)-5-(pyrazin-2-ylamino)-1H-pyrazole-4-carboxamide]
< 10 | > 30 | > 30 | CCS(=O)(=O)Nc1ccc(-c2n[nH]c(Nc3ccn(C)n3)c2C(N)=O)cc1 [compound 91, 3-(4-(ethyl-sulfonamido)phenyl)-5-((1-methyl-1H-pyrazol-3-yl)amino)-1H-pyrazole-4-carboxamide]
< 10 | > 30 | > 30 | NC(=O)c1c(-c2ccc(NS(=O)(=O)C(F)F)c(Oc3ccc(F)cc3)c2)n[nH]c1Nc1cnccn1 [Compound 177, 3-(4-((difluoromethyl)sulfonamido)-3-(4-fluorophenoxy)phenyl)-5-(pyrazin-2-ylamino)-1H-pyrazole-4-carboxamide]
< 10 | > 30 | > 30 | CCS(=O)(=O)Nc1ccc(-c2n[nH]c(Nc3ccc(C(F)(F)F)nc3)c2C(N)=O)cc1OCc1ccc(F)cc1 [Compound 194]
< 10 | > 30 | > 30 | NC(=O)c1c(-c2ccc(NS(=O)(=O)C(F)F)c(OCc3nccs3)c2)n[nH]c1Nc1cnccn1 [Compound 275, 3-(4-((difluoro-methyl)sulfon-amido)-3-(thiazol-2-ylmethoxy)phenyl)-5-(pyrazin-2-ylamino)-1H-pyrazole-4-carboxamide]
< 10 | > 30 | > 30 | NC(=O)c1c(-c2ccc(NS(=O)(=O)C(F)F)c(OCc3ccc(Cl)cc3)c2)n[nH]c1Nc1cnc(C(F)(F)F)cn1 [Compound 235, 3-(3-((4-chlorobenzyl)oxy)-4-((difluoromethyl)sulfonamido)phenyl)-5-((5-(trifluoromethyl)pyrazin-2-yl)amino)-1H-pyrazole-4-carboxamide]
